Experimental data from ChEMBL document CHEMBL5370561, “Characterization of a Malabaricane-Type Triterpene Synthase from Astragalus membranaceus and Enzymatic Synthesis of Astramalabaricosides” (J Nat Prod, 2023).
pIC50: −log10 of the molar value.

Assays:
Influenza A virus = assay: Antiviral activity against Influenza A virus infected in HEK293T-GlUC cells assessed as inhibition of viral replication at 10 uM preincubated with cells for 2 hrs followed by viral infection and measured after 24 hrs relative to control; type: functional; conditions: HEK-293T, time 26 hrs
BGC-823 = assay: Cytotoxicity against human BGC-823 cells assessed as reduction in cell growth measured after 72 hrs by MTT assay; type: functional, cell-based; conditions: BGC-823, 72 h
HepG2 [1] = assay: Cytotoxicity against human HepG2 cells assessed as reduction in cell growth measured after 72 hrs by MTT assay; type: functional, cell-based; conditions: HepG2, 72 h
PANC-1 = assay: Cytotoxicity against human PANC-1 cells assessed as reduction in cell growth measured after 72 hrs by MTT assay; type: functional, cell-based; conditions: PANC-1, 72 h
HCT-116 = assay: Cytotoxicity against human HCT-116 cells assessed as reduction in cell growth measured after 72 hrs by MTT assay; type: functional, cell-based; conditions: HCT-116, 72 h
PC-9 = assay: Cytotoxicity against human PC-9 cells assessed as reduction in cell growth measured after 72 hrs by MTT assay; type: functional, cell-based; conditions: PC-9, 72 h
RAW264.7 = assay: Antiinflammatory activity in LPS-induced mouse RAW264.7 cells assessed as inhibition of TNF-alpha production at 10 uM incubated for 1 hr followed by LPS-stimulation and measured after 24 hrs by ELISA analysis relative to control; type: functional; conditions: time 25 hrs
HepG2 [2] = assay: Hepatoprotective activity against APAP-induced cell injury in human HepG2 cells assessed as cell survival rate at 10 uM incubated for 24 hrs by MTT assay relative to control; type: functional

## NC(=O)c1ncn([C@@H]2O[C@H](CO)[C@@H](O)[C@H]2O)n1 [RIBAVIRIN]
Influenza A virus
  inhibition at 10 µM: 97%

## CC(C)=CCC/C(C)=C/CC[C@@](C)(O)[C@@H]1CC[C@H]2[C@@]1(C)CC[C@H]1C(C)(C)[C@@H](O)CC[C@]21C
Influenza A virus
  inhibition at 10 µM: 76%
BGC-823
  pIC50: 4.38
HepG2 [1]
  pIC50: 4.51
PANC-1
  pIC50: 4.54
HCT-116
  pIC50: 4.39
PC-9
  pIC50: 4.36
RAW264.7
  inhibition at 10 µM: 42%

## C=C(CC/C=C(\C)CCC=C(C)C)[C@H]1CC[C@H]2[C@@]1(C)CC[C@H]1C(C)(C)[C@@H](O)CC[C@]21C
Influenza A virus
  inhibition at 10 µM: 45%
BGC-823
  pIC50: < 4.30
HepG2 [1]
  pIC50: < 4.30
PANC-1
  pIC50: < 4.30
HCT-116
  pIC50: < 4.30
PC-9
  pIC50: < 4.30
RAW264.7
  inhibition at 10 µM: 40%

## N[C@@H](CCC(=O)N[C@@H](CS)C(=O)NCC(=O)O)C(=O)O [GLUTATHIONE]
HepG2 [2]
  Activity: 60%

## C=C(CC/C=C(\C)CCC=C(C)C)[C@@H]1CC[C@H]2[C@@]1(C)CC[C@H]1C(C)(C)[C@@H](O)CC[C@]21C
Influenza A virus
  inhibition at 10 µM: 62%
BGC-823
  pIC50: < 4.30
HepG2 [2]
  Activity: 58%
HepG2 [1]
  pIC50: < 4.30
PANC-1
  pIC50: < 4.30
HCT-116
  pIC50: < 4.30
PC-9
  pIC50: < 4.30
RAW264.7
  inhibition at 10 µM: 53%

## C=C(C)[C@@H]1CC[C@]2(C)CC[C@]3(C)[C@H](CC[C@@H]4[C@@]5(C)CC[C@H](O)C(C)(C)[C@@H]5CC[C@]43C)[C@@H]12 [LUPEOL]
Influenza A virus
  inhibition at 10 µM: 17%
BGC-823
  pIC50: < 4.30
HepG2 [1]
  pIC50: < 4.30
PANC-1
  pIC50: < 4.30
HCT-116
  pIC50: < 4.30
PC-9
  pIC50: < 4.30
RAW264.7
  inhibition at 10 µM: 34%

## CC(C)=CC/C=C(/C)[C@H]1CC[C@]2(C)[C@@H]1CC[C@@H]1[C@@]3(C)CC[C@H](O)C(C)(C)[C@@H]3CC[C@]12C
Influenza A virus
  inhibition at 10 µM: 88%
BGC-823
  pIC50: < 4.30
HepG2 [2]
  Activity: 52%
HepG2 [1]
  pIC50: < 4.30
PANC-1
  pIC50: < 4.30
HCT-116
  pIC50: < 4.30
PC-9
  pIC50: < 4.30
RAW264.7
  inhibition at 10 µM: 50%

## CC(=O)O[C@H]1C(=O)[C@@]2(C)[C@H]([C@H](OC(=O)c3ccccc3)[C@]3(O)C[C@H](OC(=O)[C@H](O)[C@@H](NC(=O)c4ccccc4)c4ccccc4)C(C)=C1C3(C)C)[C@]1(OC(C)=O)CO[C@@H]1C[C@@H]2O [PACLITAXEL]
HepG2 [1]
  pIC50: 7.19
PANC-1
  pIC50: 8.40

## C[C@@H]1C[C@H]2[C@@H]3CCC4=CC(=O)C=C[C@]4(C)[C@@]3(F)[C@@H](O)C[C@]2(C)[C@@]1(O)C(=O)CO [DEXAMETHASONE]
RAW264.7
  inhibition at 10 µM: 55%

## CC(C)=CCC/C(C)=C/CCC(C)(O)[C@H]1CC[C@H]2[C@@]1(C)CC[C@H]1C(C)(C)[C@@H](O)CC[C@]21C (some centres undefined)
Influenza A virus
  inhibition at 10 µM: 71%
BGC-823
  pIC50: 4.40
HepG2 [2]
  Activity: 47%
HepG2 [1]
  pIC50: 4.66
PANC-1
  pIC50: 4.82
HCT-116
  pIC50: 4.77
PC-9
  pIC50: 4.85
RAW264.7
  inhibition at 10 µM: 34%

## CC(C)=CCC/C(C)=C/CC[C@@](C)(O)[C@@H]1CC[C@H]2[C@@]1(C)CC[C@H]1C(C)(C)[C@@H](O[C@@H]3O[C@H](CO)[C@@H](O)[C@H](O)[C@H]3O[C@@H]3O[C@H](CO)[C@@H](O)[C@H](O)[C@H]3O)CC[C@]21C
Influenza A virus
  inhibition at 10 µM: 65%
BGC-823
  pIC50: 4.59
HepG2 [2]
  Activity: 48%
HepG2 [1]
  pIC50: < 4.30
PANC-1
  pIC50: 4.35
HCT-116
  pIC50: 4.41
PC-9
  pIC50: 4.44
RAW264.7
  inhibition at 10 µM: 30%

## CC(C)=CCC/C(C)=C/CC[C@@](C)(O)[C@@H]1CC[C@H]2[C@@]1(C)CC[C@H]1C(C)(C)[C@@H](O[C@@H]3O[C@H](CO)[C@@H](O)[C@H](O)[C@H]3O)CC[C@]21C
Influenza A virus
  inhibition at 10 µM: 47%
BGC-823
  pIC50: < 4.30
HepG2 [2]
  Activity: 55%
HepG2 [1]
  pIC50: < 4.30
PANC-1
  pIC50: 4.66
HCT-116
  pIC50: 4.55
PC-9
  pIC50: 4.31
RAW264.7
  inhibition at 10 µM: 39%

## CC(C)=CCC[C@@](C)(O)[C@H]1CC[C@]2(C)[C@@H]1CC[C@@H]1[C@@]3(C)CC[C@H](O)C(C)(C)[C@@H]3CC[C@]12C
Influenza A virus
  inhibition at 10 µM: 57%
BGC-823
  pIC50: 4.40
HepG2 [2]
  Activity: 51%
HepG2 [1]
  pIC50: 4.43
PANC-1
  pIC50: 4.48
HCT-116
  pIC50: 4.40
PC-9
  pIC50: 4.31
RAW264.7
  inhibition at 10 µM: 43%
